In data set [1] the target is T1, ZHD (zearalenone hydrolase) (Clonostachys rosea, UniProt Q8NKB0, V26I/P69A/V87I/K148N/M168L/D170V/K198Q/L200V).
T1 construct: gene zhd101; full length; natural clone from genomic DNA of a CGMCC strain; extra N-terminal MD; E. coli BL21(DE3); dimer
The data set can be described thus: HPLC of remaining ZEN. In kind it is biochemical. Particulars: 100 mM Tris-HCl pH 9.5, 30 °C, 15 nM ZHD, 1-50 µM ZEN.

Data set [2] concerns the molecule itself. The experiment in a line: SEC; HiLoad 16/60 Superdex 200 prep-grade column, last step of the purification; oligomeric state from the elution position.

The values that follow come from PMC5505240, “The structure of a complex of the lactonohydrolase zearalenone hydrolase with the hydrolysis product of zearalenone at 1.60 Å resolution” (Acta Crystallographica. Section F, Structural Biology …, 2017).

`C[C@H]1CCCC(=O)CCC/C=C/c2cc(O)cc(O)c2C(=O)O1` [ZEN, zearalenone]: the Km (as a rule, the substrate concentration at which the rate is half of its maximum) in data set [1] was 3.5 µM.

B1: Zearalenone hydrolase (ZHD), C-terminally His6-tagged (enzyme, Clonostachys rosea)
chain: MDMRTRSTISTPNGITWYYEQEGTGPDIVLVPDGLGECQMFDSSVSQIAAQGFRVTTFDMPGMSRSAKAPAETYTEVTAQKLASYVISILDALDIKHATVWGCSSGASTVVALLLGYPDRIRNAMCHELPTKLLDHLSNTAVLEDEEISNILANVMLNDVSGGSEAWQALGVEVHARLHKNYPVWARGYPRTIPPSAPVQDVEALRGKPLDWTVGAATPTESFFDNIVTATKAGVNIGLLPGMHFPYVSHPDVFAKYVVETTQKHLWNSSSVDKLAAALE
notes: zearalenone hydrolase (ZHD) cloned from genomic DNA of a Clonostachys rosea strain (CGMCC); natural strain variant with eight amino-acid variations compared with GenBank ALI16790.1; 14-amino-acid linker between ZHD and the C-terminal His6 tag; The His6 is written under tags, the linker as a part; The substitutions count against GenBank ALI16790.1, not necessarily against the UniProt entry; also …
Take B1: the stoichiometry N (commonly the number of molecules, sites or subunits per partner or assembly) in data set [2] worked out at 2.
